Source: patent US7655392B2, “Quenching methods for red blood cell inactivation process” (priority 2004, dated 2010)
Where “and” joins values, the source holds several entries; their conditions need not be identical. Identical values can stand only once.

What was measured:
[1] = tested on: Human Leukocyte Genomic DNA; assay: PIC-1 adduct frequency on leukocyte genomic DNA (14C-labelled PIC-1); format: biochemical; details: 20 h RT
Description: The quenching methods of the invention can also be compared to existing methods by determining the level of modification of nucleic acids in a sample. Typically, a red blood cell composition may contain leukocytes, and the nucleic acid from the leukocytes can be isolated. A pathogen inactivating compound having a radioactive isotope that, upon reaction of the compound with nucleic acid, will remain bound to the nucleic acid. This can be used to assess the amount of compound reacted with the nucleic acid for a variety of quenching methods, and provides a measure that can be directly correlated to expected leukocyte inactivation. The number of adducts formed per 1,000 nucleic acid base pairs can be used as a model to assess the expected impact of the various methods on pathogen inactivation. Alternatively, a suitable amount of a pathogen can be added to a red blood cell composition and the nucleic acid of the pathogen can be isolated after treatment. However, in this case the sample needs to be leukoreduced such that the levels of any residual leukocytes will not interfere with the measurement of pathogen nucleic acid.
The PIC-1 used included radiolabeled PIC-1, where the reactive group included a ^14C label (ViTrax, Inc., Placentia, Calif.). The specific activity of the PIC-1 used was […]. All samples were incubated at room temperature for 20 hours. After the incubation, 20 mL of RBC were diluted with a 20 mL volume of PBS and 20 mL of the mixture were added to each of two tubes containing 10 mL of Ficoll. The suspension was then centrifuged at 400×g for 30 minutes. The white blood cell portion was separated and the centrifuge step repeated after adding another 20 mL of PBS. The pellets obtained were combined and the combined pellet was resuspended in 5 mL Lysis buffer (100 mM NaCl, 10 mM Tris HCl, 25 mM EDTA, 5% SDS, 0.1 mg/mL Proteinase K, Sigma, St. Louis, Mo.) and was incubated at 50° C. for at least two hours. The resulting solution was then extracted with 5 mL of phenol:chloroform:isoamyl alcohol […], followed by 5 mL of chloroform, and then 5 mL of ether. The genomic DNA was isolated in the aqueous layer and precipitated by addition of 0.5 mL of 3 M NaOAc, 10 mL of 100% ethanol, followed by incubation of the final mixture in a dry ice/ethanol bath. The DNA was isolated by centrifugation at 6,000×g for 10′. The supernatant was removed, and the pellet air-dried and resuspended in 1 mL of TE buffer (100 mM Tris HCl, 1 mM EDTA, pH=7.4) The amount of DNA isolated was quantified by UV absorption at 260 nm and the amount of PIC-1 adducts was quantified by liquid scintillation counting (Perkin Elmer-Wallac, Winspectral 1414 Liquid Scintillation Counter, Shelton, Conn.) of the solution of DNA, using the specific activity of the PIC-1 to assess the molar ratio of PIC-1 to DNA base pairs. […] Glutathione is indicated as “GSH” and cysteine as “Cys” in the table, as well as elsewhere herein. The determination of adduct frequency was used as a surrogate measurement for the inactivation of leukocytes. It is known that under the standard pathogen inactivation conditions, leukocytes are inactivated to the level of detection of a limiting dilution assay, which corresponds to 5.3 log of inactivation. The mechanism of inactivation is through formation of adducts on the genomic nucleic acids. […] Similar studies could be done with a suitable pathogen using leukoreduced red blood cells in order to assess the binding to the pathogen nucleic acid under various conditions.

[2] = Co-formulation of PIC-1 with neutralized glutathione in one solution (observation); format: physicochemical; details: PIC-1 and 20 mM glutathione neutralized with NaOH in one solution (Table 2A samples 4-6)
Description: The methods of the invention result in adequate inactivation of possible pathogen contaminants in red blood cell compositions with improved quenching as compared to known methods. […] In some embodiments, the quencher is acidic and is neutralized with 1 to 2 equivalents of a suitable base, such as sodium hydroxide. In a preferred embodiment, the quencher is glutathione neutralized with 2 equivalents of base. In a preferred embodiment, the pathogen inactivating compound comprises an acridine group linked to a mustard group via an ester bond. […] The quencher may be added to the red blood cell composition before, after, or simultaneously with the pathogen inactivating compound. In some embodiments, the quencher is added in the time range of about 30 minutes prior to pathogen inactivating compound up to about 10 minutes following pathogen inactivating compound. In some embodiments, the quencher and pathogen inactivating compound may be added essentially simultaneously but separately. […] Because of the high concentration of glutathione required for adequate quenching, the pathogen inactivating compound precipitates when these are in the same solution in high concentrations. Once added to the red blood cell composition, they are sufficiently diluted and buffered as to both be completely soluble.

[3] = tested on: leukocytes; details: standard pathogen inactivation conditions; cited from earlier work
[4] = tested on: Staphylococcus epidermidis; assay: Inactivation of Staphylococcus epidermidis in RBC (colony count); details: for Change in Log titer: initial RBC titer 6.5
Description: Whole blood (Blood Source, Sacramento, Calif.) was used to prepare a red blood cell (RBC) composition by centrifuging to provide packed RBC (34 mL of approximately 90% hematocrit), then adding 17 mL Erythrosol to a hematocrit of approximately 60%. Erythrosol is a red blood cell additive (Baxter Healthcare Corp., Deerfield, Ill.) that may be prepared by combining sodium citrate dihydrate (7.82 g); sodium acid phosphate dihydrate (0.73 g); sodium phosphate dihydrate (3.03 g); adenine (0.22 g); mannitol (7.74 g); and glucose (9 g) in 1 liter of distilled water. The bacterial preparation was then added ( 1/100th of the total volume) to the RBC/Erythrosol to provide contaminated RBC. The contaminated RBC was divided into several samples and treated according to Table 2, where PIC-1 is β-alanine, N-(acridin-9-yl), 2-[bis(2-chloroethyl)amino]ethyl ester. The PIC-1 and glutathione (Aldrich, St. Louis, Mo.) were dissolved in a solution of 8% dextrose monohydrate at about 15× the desired concentration in the final red blood cell composition when added together, or 30× when added separately. […] For separate addition using 20 mM neutralized glutathione, PIC-1 is prepared by dissolving 7.6 mg in 2.5 mL of 8% dextrose, glutathione is prepared by dissolving 460 mg in 1.9 mL of 8% dextrose and mixing with 0.6 mL of 5N NaOH, then adding 165 μL of each solution to 4.67 mL RBC in the appropriate order. Following treatment, the samples were incubated for 2 hours, and 100 μL of each was serially diluted and plated on LB plates. These were incubated overnight at 37° C. in order to assess bacterial growth. The bacterial titer was determined by counting colonies on the plates and based on the dilution of the plate, the titer was determined. For example, with 10-fold serial dilutions, 30 colonies counted on the 5th dilution of the original solution, where 0.1 mL are plated, would indicate an initial titer of (30×10^5)/0.1=3×10^7, or 7.47 log. […] Note that for most samples in Table 2A the PIC-1 and glutathione were formulated together. […] The study was repeated with sequential addition of the two components, as indicated in Table 2B (time delay of 0 indicates they were added in the same solution).
Additional studies were done using S. epidermidis, where the overnight culture was used without dilution. […] PIC-1 is at 0.2 mM in all samples.
For these samples, the NaOH stock was prepared at 10N and appropriate volumes of the various components were used following the procedures above. Standard conditions and/or 20 mM neutralized glutathione (GSH) were run for comparison.

[5] = 20 mM GSH neutralized with 2 eq, 0.2 mM PIC-1 10 min later
[6] = 20 mM each neut. GSH (2 eq) and Cys (1 eq), 0.2 mM PIC-1 10 min later
[7] = 0.2 mM PIC-1, then 20 mM glutathione+2 eq base after 1 min
[8] = 0.2 mM PIC-1, then 20 mM glutathione+2 eq base after 5 min
[9] = 0.2 mM PIC-1, then 20 mM glutathione+2 eq base after 10 min
[10] = 0.2 mM PIC-1, then 20 mM glutathione+2 eq base after 20 min
[11] = 0.2 mM PIC-1 and 2 mM glutathione, 0 eq base, simultaneous
[12] = 0.2 mM PIC-1 and 20 mM glutathione, 0 eq base, simultaneous
[13] = 20 mM glutathione+2 eq base, then 0.2 mM PIC-1 after 1 min
[14] = 20 mM glutathione+2 eq base, then 0.2 mM PIC-1 after 10 min
[15] = Table 5C: 0.2 mM PIC-1+2 mM GSH, 0 eq base, no delay
[16] = Table 5C: 5 mM Cys+1 eq base, then 0.2 mM PIC-1 after 10 min
[17] = Table 5C: 10 mM Cys+1 eq base, then 0.2 mM PIC-1 after 10 min
[18] = Table 5C: 20 mM Cys+1 eq base, then 0.2 mM PIC-1 after 10 min
[19] = Table 5C: 20 mM GSH+2 eq base, then 0.2 mM PIC-1 after 10 min
[20] = Table 5C: […] Cys+1 eq base, then 0.2 mM PIC-1 after 10 min

Compound: O=C(CCNc1c2ccccc2nc2ccccc12)OCCN(CCCl)CCCl [PIC-1]
- Adduct frequency (average number of base pairs between adducts) ([1]; 0.2 mM PIC-1, 2 mM acidic GSH): 44 and 29
- Adducts per kbp ([1]; 0.2 mM PIC-1, 2 mM acidic GSH): 23 and 34
- Adduct frequency (average number of base pairs between adducts) ([1]; 0.2 mM PIC-1, no quencher): 36 and 35
- Adducts per kbp ([1]; 0.2 mM PIC-1, no quencher): 28
- Adduct frequency (average number of base pairs between adducts) [1, 5]: 27 and 28
- Adducts per kbp [1, 5]: 37 and 36
- Adduct frequency (average number of base pairs between adducts) [1, 6]: 33
- Adducts per kbp [1, 6]: 30
- solubility when formulated together with neutralized glutathione [2]: precipitated out of solution
- leukocyte inactivation (level of detection of limiting dilution assay) [3]: 5.3 log
- Log S. epidermidis reduction [4, 7]: 6.70 Log
- Log S. epidermidis titer [4, 7]: −0.08 Log
- Log S. epidermidis reduction [4, 8]: 6.70 Log
- Log S. epidermidis titer [4, 8]: −0.08 Log
- Log S. epidermidis reduction [4, 9]: 6.70 Log
- Log S. epidermidis titer [4, 9]: −0.08 Log
- Log S. epidermidis reduction [4, 10]: 6.70 Log
- Log S. epidermidis titer [4, 10]: −0.08 Log
- Log S. epidermidis reduction [4, 11]: 6.70 Log
- Log S. epidermidis titer [4, 11]: −0.08 Log
- Log S. epidermidis reduction [4, 12]: 0.22 Log
- Log S. epidermidis titer [4, 12]: 6.40 Log
- Log S. epidermidis reduction [4, 13]: 6.10 Log
- Log S. epidermidis titer [4, 13]: 0.52 Log
- Log S. epidermidis reduction [4, 14]: 5.92 Log
- Log S. epidermidis titer [4, 14]: 0.70 Log
- inactivation of S. epidermidis ([4]; 20 mM neutralized glutathione as quencher, 0.2 mM PIC-1): not significantly reduced
- Log S. epidermidis reduction [4, 15]: 7.2 Log
- Log S. epidermidis titer [4, 15]: 0 Log
- Log S. epidermidis reduction [4, 16]: 7.2 Log
- Log S. epidermidis titer [4, 16]: 0 Log
- Log S. epidermidis reduction [4, 17]: 4.9 Log
- Log S. epidermidis titer [4, 17]: 2.3 Log
- Log S. epidermidis reduction [4, 18]: 4.0 Log
- Log S. epidermidis titer [4, 18]: 3.2 Log
- Log S. epidermidis reduction [4, 19]: 7.2 Log
- Log S. epidermidis titer [4, 19]: 0 Log
- Log S. epidermidis reduction [4, 20]: 7.2 Log
- Log S. epidermidis titer [4, 20]: 0 Log
- Change in Log titer ([4]; 2 mM GSH, 1 eq. base, 0.2 mM PIC-1): 6.5 Log
- Change in Log titer ([4]; 2 mM GSH, 2 eq. base, 0.2 mM PIC-1): 6.5 Log
- Change in Log titer ([4]; 2 mM GSH, no added base, 0.2 mM PIC-1): 6.5 Log
- Change in Log titer ([4]; 5 mM GSH, 1 eq. base, 0.2 mM PIC-1): 6.5 Log
- Change in Log titer ([4]; 5 mM GSH, 2 eq. base, 0.2 mM PIC-1): 6.5 Log
- Change in Log titer ([4]; 5 mM GSH, no added base, 0.2 mM PIC-1): 6.5 Log
- Change in Log titer ([4]; 10 mM GSH, 1 eq. base, 0.2 mM PIC-1): 6.5 Log
- Change in Log titer ([4]; 10 mM GSH, 2 eq. base, 0.2 mM PIC-1): 6.5 Log
- Change in Log titer ([4]; 10 mM GSH, no added base, 0.2 mM PIC-1): 2.9 Log
- Change in Log titer ([4]; 20 mM GSH, 1 eq. base, 0.2 mM PIC-1): 6.5 Log
- Change in Log titer ([4]; 20 mM GSH, 2 eq. base, 0.2 mM PIC-1): 6.5 Log
- Change in Log titer ([4]; 20 mM GSH, no added base, 0.2 mM PIC-1): 2.5 Log
